Measured values as given in ChEMBL document CHEMBL5241064, “Specific non-genetic IAP-based protein erasers (SNIPERs) as a potential therapeutic strategy” (Eur J Med Chem, 2021).

Assays:
[1] = target: Baculoviral IAP repeat-containing protein 2/E3 ubiquitin-protein ligase XIAP/Breakpoint cluster region protein/Tyrosine-protein kinase ABL1 (Homo sapiens, UniProt P00519+P11274+P98170+Q13490); assay: Protac activity at IAP/BCR-ABL in human K562 cells assessed as induction of BCR-ABL protein degradation measured after 6 hrs by Western blot analysis; type: cell-based
[2] = target: E3 ubiquitin-protein ligase XIAP/Tyrosine-protein kinase ABL1/Breakpoint cluster region protein (Homo sapiens, UniProt P00519+P11274+P98170); assay: Protac activity at XIAP/BCR-ABL in human K562 cells assessed as induction of BCR-ABL protein degradation measured after 6 hrs by Western blot analysis; type: cell-based
[3] = target: Baculoviral IAP repeat-containing protein 2/Cellular retinoic acid-binding protein 2 (Homo sapiens, UniProt P29373+Q13490); assay: Protac activity at cIAP1 (unknown origin)/CRABP-II (unknown origin) assessed as protein degradation
[4] = target: Estrogen receptor/E3 ubiquitin-protein ligase XIAP (Homo sapiens, UniProt P03372+P98170); assay: Protac activity at XIAP (unknown origin)/ERalpha (unknown origin) assessed as protein degradation; type: protein assay
Estrogen receptor/E3 ubiquitin-protein ligase XIAP, sequence (P03372 whole entry): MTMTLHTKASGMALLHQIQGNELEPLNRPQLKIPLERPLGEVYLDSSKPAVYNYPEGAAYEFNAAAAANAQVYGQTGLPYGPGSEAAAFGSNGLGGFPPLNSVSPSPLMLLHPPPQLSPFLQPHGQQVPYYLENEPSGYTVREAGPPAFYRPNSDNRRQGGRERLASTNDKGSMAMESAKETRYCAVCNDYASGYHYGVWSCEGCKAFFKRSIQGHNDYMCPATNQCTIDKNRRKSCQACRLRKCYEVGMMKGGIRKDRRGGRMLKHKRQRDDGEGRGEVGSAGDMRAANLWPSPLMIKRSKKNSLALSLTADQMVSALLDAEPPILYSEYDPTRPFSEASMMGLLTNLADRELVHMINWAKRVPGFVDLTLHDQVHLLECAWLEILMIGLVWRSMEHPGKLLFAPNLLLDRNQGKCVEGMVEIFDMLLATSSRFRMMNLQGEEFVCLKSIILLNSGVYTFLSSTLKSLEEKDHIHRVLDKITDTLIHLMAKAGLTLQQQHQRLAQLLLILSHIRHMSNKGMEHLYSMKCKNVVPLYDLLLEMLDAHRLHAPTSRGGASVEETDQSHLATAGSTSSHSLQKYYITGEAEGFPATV
Estrogen receptor/E3 ubiquitin-protein ligase XIAP, sequence (P98170 whole entry): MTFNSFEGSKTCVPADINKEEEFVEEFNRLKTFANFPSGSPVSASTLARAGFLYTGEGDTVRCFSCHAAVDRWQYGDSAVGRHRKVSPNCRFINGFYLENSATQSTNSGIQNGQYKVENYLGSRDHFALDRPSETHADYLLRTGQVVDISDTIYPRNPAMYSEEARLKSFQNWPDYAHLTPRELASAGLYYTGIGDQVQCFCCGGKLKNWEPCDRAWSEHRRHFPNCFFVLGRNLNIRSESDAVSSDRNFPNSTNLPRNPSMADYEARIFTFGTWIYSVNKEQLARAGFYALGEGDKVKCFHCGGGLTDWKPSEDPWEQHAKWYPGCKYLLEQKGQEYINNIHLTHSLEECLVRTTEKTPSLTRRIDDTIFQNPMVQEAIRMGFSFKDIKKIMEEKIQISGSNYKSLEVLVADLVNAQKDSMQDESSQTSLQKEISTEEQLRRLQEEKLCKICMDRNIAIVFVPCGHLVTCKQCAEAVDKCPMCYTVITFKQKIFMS

E3 ubiquitin-protein ligase XIAP/Tyrosine-protein kinase ABL1/Breakpoint cluster region protein, sequence (P00519 whole entry): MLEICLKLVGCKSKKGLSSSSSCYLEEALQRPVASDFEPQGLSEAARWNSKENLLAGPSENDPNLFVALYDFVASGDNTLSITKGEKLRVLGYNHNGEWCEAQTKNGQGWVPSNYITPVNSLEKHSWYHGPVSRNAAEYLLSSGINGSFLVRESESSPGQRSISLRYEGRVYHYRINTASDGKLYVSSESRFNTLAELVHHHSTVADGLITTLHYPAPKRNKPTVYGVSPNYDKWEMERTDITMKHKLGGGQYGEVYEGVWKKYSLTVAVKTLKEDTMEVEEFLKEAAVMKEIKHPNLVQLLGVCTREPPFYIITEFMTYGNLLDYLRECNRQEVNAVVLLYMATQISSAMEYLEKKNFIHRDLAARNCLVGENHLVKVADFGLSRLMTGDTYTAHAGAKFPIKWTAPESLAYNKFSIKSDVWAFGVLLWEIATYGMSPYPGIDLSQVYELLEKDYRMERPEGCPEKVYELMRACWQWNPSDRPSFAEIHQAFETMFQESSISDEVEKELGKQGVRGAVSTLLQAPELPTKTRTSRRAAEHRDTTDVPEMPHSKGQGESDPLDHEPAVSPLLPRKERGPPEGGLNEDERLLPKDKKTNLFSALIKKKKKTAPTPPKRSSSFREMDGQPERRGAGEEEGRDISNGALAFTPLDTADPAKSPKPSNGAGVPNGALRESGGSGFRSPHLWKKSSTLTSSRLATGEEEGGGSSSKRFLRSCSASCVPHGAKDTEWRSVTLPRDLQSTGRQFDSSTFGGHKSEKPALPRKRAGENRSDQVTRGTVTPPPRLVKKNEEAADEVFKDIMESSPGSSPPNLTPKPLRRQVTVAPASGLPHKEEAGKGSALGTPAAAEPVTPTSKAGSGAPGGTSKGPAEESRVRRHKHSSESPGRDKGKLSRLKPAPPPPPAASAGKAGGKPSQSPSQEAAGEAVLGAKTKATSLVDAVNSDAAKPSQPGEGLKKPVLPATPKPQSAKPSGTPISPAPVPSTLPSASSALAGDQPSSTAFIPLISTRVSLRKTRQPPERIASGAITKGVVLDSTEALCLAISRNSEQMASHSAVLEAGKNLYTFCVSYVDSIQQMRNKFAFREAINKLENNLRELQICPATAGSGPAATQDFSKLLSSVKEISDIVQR
E3 ubiquitin-protein ligase XIAP/Tyrosine-protein kinase ABL1/Breakpoint cluster region protein, sequence (P98170 whole entry): as the sequence (P98170 whole entry) above
E3 ubiquitin-protein ligase XIAP/Tyrosine-protein kinase ABL1/Breakpoint cluster region protein, sequence (P11274 whole entry): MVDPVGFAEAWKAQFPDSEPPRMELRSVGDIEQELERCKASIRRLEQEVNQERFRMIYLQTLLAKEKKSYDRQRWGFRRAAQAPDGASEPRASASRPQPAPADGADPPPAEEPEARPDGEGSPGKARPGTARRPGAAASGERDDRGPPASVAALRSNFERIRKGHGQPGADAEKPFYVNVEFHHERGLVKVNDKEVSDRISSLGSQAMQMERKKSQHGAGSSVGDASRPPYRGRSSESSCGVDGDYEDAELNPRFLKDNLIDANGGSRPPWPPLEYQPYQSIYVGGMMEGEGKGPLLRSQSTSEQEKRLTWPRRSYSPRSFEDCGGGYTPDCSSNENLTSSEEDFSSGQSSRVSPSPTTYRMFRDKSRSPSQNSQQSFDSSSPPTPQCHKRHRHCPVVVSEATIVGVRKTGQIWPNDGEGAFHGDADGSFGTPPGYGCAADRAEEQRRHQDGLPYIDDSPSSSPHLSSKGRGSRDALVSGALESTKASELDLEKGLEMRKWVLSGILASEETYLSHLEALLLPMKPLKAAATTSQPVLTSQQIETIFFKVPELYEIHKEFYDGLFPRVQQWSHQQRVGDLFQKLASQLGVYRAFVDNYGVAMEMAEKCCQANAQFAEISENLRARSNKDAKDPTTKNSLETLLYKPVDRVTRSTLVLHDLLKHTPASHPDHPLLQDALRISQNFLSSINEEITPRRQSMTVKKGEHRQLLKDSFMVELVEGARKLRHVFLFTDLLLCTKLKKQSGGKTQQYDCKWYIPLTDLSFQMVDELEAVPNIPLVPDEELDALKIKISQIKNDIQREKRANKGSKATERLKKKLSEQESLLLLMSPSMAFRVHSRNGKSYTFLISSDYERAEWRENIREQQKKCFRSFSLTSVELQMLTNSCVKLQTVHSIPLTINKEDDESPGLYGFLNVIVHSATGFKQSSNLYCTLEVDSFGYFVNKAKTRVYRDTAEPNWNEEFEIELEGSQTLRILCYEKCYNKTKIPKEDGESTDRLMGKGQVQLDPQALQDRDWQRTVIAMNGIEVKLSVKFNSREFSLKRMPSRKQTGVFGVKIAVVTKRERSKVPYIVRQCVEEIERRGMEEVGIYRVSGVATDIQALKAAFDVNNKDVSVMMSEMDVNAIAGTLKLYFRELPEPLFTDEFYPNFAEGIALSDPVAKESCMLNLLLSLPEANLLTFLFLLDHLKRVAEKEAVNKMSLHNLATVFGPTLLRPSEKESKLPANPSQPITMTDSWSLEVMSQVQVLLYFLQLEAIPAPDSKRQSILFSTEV
Baculoviral IAP repeat-containing protein 2/Cellular retinoic acid-binding protein 2, sequence (P29373 whole entry): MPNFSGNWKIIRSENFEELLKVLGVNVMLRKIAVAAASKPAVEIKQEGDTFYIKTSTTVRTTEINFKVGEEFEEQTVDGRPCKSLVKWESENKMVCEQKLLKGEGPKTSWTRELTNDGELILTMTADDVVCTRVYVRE
Baculoviral IAP repeat-containing protein 2/Cellular retinoic acid-binding protein 2, sequence (Q13490 whole entry): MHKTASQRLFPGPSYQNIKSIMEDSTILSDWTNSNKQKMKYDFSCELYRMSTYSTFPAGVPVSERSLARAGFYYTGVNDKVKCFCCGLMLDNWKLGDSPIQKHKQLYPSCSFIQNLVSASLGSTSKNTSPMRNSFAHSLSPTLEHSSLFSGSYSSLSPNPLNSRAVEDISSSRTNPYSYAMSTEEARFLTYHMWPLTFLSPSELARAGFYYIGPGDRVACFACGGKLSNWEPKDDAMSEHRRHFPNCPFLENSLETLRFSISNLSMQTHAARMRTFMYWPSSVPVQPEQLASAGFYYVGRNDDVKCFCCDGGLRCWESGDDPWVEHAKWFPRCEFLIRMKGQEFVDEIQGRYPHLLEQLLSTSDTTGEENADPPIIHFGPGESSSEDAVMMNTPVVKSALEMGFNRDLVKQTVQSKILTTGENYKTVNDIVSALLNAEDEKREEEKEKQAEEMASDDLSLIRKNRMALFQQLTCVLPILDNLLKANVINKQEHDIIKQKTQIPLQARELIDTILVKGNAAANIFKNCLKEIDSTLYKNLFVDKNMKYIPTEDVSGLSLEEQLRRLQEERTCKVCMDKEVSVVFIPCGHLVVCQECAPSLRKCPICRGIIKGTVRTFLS

SMILES: CN[C@@H](C)C(=O)N[C@H](C(=O)N1CCC[C@H]1c1nc(C(=O)c2cccc(OCCOCCOCCOCC(=O)N3CCN(c4cc(Nc5ncc(C(=O)Nc6c(C)cccc6Cl)s5)nc(C)n4)CC3)c2)cs1)C1CCCCC1
- EC50 [1]: < 100 nM
- EC50 [2]: < 100 nM

SMILES: CC1=C(/C=C/C(C)=C/C=C/C(C)=C/C(=O)O)C(C)(C)CC/C1=N\OCC(=O)NCCOCCOCCOC(=O)[C@H](CC(C)C)NC(=O)[C@@H](O)[C@H](N)Cc1ccccc1
- EC50 [3]: ≥ 1000 nM

SMILES: CC/C(=C(\c1ccc(O)cc1)c1ccc(OCCN(C)C(=O)COCCOCCOCc2cccc(O[C@H]3C[C@@H](C(=O)N[C@@H]4CCCc5ccccc54)N(C(=O)[C@@H](NC(=O)[C@H](C)NC)C4CCCCC4)C3)c2)cc1)c1ccccc1
- EC50 [4]: < 100 nM

SMILES: CC/C(=C(\c1ccc(O)cc1)c1ccc(OCCN(C)C(=O)COCCCCOc2cccc(C(=O)c3csc([C@@H]4CCCN4C(=O)[C@@H](NC(=O)[C@H](C)NC)C4CCCCC4)n3)c2)cc1)c1ccccc1
- EC50 [4]: < 100 nM
